This is an account of results in ChEMBL document CHEMBL5252511 (J Med Chem, 2016).

Series [1] is described as follows: Permeability of compound at pH 5.5 by PAMPA assay. The class given is ADME. The note with it: read-out: permeability.
The nature of series [2]: Ratio of drug concentration in brain to plasma of triple transgenic C57BL/6 mouse alzheimer disease model at 30 mg/kg,po and measured after 2 hrs. Format: ADME, organism-based.
Series [3] is described as follows: Drug exposure in brain of triple transgenic C57BL/6 mouse alzheimer disease model at 30 mg/kg,po and measured after 2 hrs. The class given is ADME, organism-based. As to conditions: read-out: Ct.
Series [4] is described as follows: Permeability of compound at pH 7.4 by PAMPA assay. Format: ADME. As to conditions: read-out: permeability.
The nature of series [5]: Permeability across basolateral to apical side in human Caco2 cells. The class given is ADME, cell-based. The note with it: Caco-2, read-out: permeability. (In general: Caco-2 monolayers are a common model of the intestinal barrier.)
A short description of series [6]: Permeability across apical to basolateral side in human Caco2 cells. Format: ADME, cell-based. The note with it: Caco-2, read-out: permeability.
Series [7] is described as follows: Drug exposure in plasma of triple transgenic C57BL/6 mouse alzheimer disease model at 30 mg/kg,po and measured after 2 hrs. The class given is ADME, organism-based.

For the molecule `O=C(Nc1cnccc1-c1ccccc1)c1ccnc(NC(=O)C2CC2)c1`, the Papp in series [1] was determined as 52.6 ×10⁻⁶ cm/s; in series [4], 48.3 ×10⁻⁶ cm/s. Also, the Kp at 2 h in series [2] is 0.2. Besides, the concentration at 2 h in series [3] is 440 nM. Also, the Papp B→A in series [5] was 30.1 ×10⁻⁶ cm/s. Moreover, the Papp A→B in series [6] stood at 31.9 ×10⁻⁶ cm/s.

As to `O=C(Nc1cnccc1-c1ccc(Cl)cc1)c1ccnc(NC(=O)C2CC2)c1`, the Papp in series [1] was 90.4 ×10⁻⁶ cm/s; in series [4], 126 ×10⁻⁶ cm/s. Also, in series [5], the Papp B→A is 27.9 ×10⁻⁶ cm/s. Besides, the Papp A→B in series [6] is 35.4 ×10⁻⁶ cm/s.

Molecule `CCOc1ccncc1NC(=O)c1ccnc(NC(=O)C2CC2)c1` yielded a concentration at 2 h in series [7] of 47 nM.

By Kp is commonly meant tissue or fluid exposure divided by exposure in the circulation.
